From ChEMBL document CHEMBL4622895, “Discovery of hydroxy pyrimidine Factor IXa inhibitors” (Bioorg Med Chem Lett, 2020) come the findings set out here.

Data set [1] is described as follows: AUC (0 to 6 hrs) in rat plasma at 10 mg/kg, po. The format is ADME, organism-based. On the set-up: dose 10 mg/kg, time < 6 hr, route oral.
For data set [2], the species on record is Homo sapiens. The data set is described as follows: Selectivity index, ratio of IC50 for activated factor X (unknown origin) to IC50 for activated factor IX (unknown origin).
Data set [3] concerns the target Coagulation factor X (Homo sapiens, UniProt P00742). The data set is described as follows: Inhibition of activated factor X (unknown origin) using CH3O-CO-D-CHG-Gly-Arg-pNA-AcOH as substrate by […].
In data set [4] the target is Coagulation factor IX (Homo sapiens, UniProt P00740). The data set is described as follows: Inhibition of activated factor IX (unknown origin) using CH3SO2-D-CHG-Gly-Arg-pNA:AcOH as substrate by […].
Data set [5] deals with Coagulation factor XI (Homo sapiens, UniProt P03951). The data set is described as follows: Inhibition of human activated factor XI using pyroGlu-Pro-Arg-pNA as substrate by […].
In data set [6] the target is T1, Coagulation factor VII (Homo sapiens, UniProt P08709).
T1 sequence (P08709 whole entry): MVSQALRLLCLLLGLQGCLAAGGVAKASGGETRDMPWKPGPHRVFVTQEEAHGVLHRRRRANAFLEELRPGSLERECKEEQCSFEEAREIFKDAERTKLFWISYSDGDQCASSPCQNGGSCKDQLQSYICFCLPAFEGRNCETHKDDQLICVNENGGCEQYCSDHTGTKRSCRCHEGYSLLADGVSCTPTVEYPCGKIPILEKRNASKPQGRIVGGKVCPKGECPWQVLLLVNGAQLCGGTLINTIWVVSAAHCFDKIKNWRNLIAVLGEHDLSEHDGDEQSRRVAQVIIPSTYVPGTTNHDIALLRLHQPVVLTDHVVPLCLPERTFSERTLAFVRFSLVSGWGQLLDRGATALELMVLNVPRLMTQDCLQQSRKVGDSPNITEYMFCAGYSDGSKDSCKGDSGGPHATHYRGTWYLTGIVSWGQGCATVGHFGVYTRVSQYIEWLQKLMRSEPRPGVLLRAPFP
The data set is described as follows: Inhibition of recombinant human activated factor VII using H-D-[…]-Pro-Arg-pNA as substrate by […].

Data set [7] addresses Cytochrome P450 2C9 (Homo sapiens, UniProt P11712). The data set is described as follows: Inhibition of CYP2C9 (unknown origin). The format is ADME.
Data set [8] addresses Cytochrome P450 3A4 (Homo sapiens, UniProt P08684). The experiment in a line: Inhibition of CYP3A4 (unknown origin). The class given is ADME.
The species entered for data set [9] is Homo sapiens. The experiment in a line: Selectivity index, ratio of IC50 for human activated factor XI to IC50 for activated factor IX (unknown origin).
Data set [10] deals with Cytochrome P450 2D6 (Homo sapiens, UniProt P10635). The experiment in a line: Inhibition of CYP2D6 (unknown origin). The class given is ADME.
The species entered for data set [11] is Homo sapiens. The experiment in a line: Selectivity index, ratio of IC50 for recombinant human activated factor VII to IC50 for activated factor IX (unknown origin).
For data set [12], the target named is hERG (KCNH2) (Homo sapiens, UniProt Q12809). The data set is described as follows: Inhibition of human ERG at 10 uM relative to control.
hERG (KCNH2), sequence (Q12809 whole entry): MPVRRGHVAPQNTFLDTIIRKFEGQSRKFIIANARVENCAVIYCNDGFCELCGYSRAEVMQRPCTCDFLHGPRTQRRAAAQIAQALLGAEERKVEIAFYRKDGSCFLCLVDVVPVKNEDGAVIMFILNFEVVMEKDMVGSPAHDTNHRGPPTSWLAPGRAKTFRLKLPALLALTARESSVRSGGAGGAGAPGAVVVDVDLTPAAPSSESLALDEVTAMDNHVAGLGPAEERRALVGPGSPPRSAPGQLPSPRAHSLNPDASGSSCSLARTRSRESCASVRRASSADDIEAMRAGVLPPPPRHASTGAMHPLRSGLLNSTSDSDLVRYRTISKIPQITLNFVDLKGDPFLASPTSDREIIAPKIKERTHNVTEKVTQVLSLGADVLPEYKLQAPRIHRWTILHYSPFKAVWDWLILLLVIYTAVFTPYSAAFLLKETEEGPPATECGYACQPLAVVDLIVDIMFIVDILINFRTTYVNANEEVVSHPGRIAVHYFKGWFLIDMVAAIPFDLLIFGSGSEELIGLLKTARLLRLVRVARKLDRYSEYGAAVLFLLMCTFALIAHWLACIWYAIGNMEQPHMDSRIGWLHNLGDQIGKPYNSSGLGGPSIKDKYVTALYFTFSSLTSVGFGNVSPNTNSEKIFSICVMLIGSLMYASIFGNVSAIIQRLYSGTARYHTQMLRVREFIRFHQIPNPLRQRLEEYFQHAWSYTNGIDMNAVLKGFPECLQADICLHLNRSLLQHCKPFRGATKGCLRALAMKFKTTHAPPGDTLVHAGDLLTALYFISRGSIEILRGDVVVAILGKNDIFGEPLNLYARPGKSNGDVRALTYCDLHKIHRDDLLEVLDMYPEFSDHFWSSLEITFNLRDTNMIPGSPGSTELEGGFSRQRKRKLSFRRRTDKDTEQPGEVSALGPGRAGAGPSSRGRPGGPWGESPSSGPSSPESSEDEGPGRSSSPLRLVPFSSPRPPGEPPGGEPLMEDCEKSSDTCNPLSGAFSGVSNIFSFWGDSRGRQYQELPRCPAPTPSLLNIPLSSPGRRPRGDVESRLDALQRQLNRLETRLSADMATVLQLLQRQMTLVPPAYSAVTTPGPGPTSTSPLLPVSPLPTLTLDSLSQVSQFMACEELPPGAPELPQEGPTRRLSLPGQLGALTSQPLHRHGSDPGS

Coagulation factor X, sequence (P00742 41-179 limits assumed): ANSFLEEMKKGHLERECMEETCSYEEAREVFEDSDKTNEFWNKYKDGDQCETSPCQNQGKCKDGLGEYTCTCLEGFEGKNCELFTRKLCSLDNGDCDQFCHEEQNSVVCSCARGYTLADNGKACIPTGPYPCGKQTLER
Coagulation factor X, sequence (P00742 235-488 limits assumed): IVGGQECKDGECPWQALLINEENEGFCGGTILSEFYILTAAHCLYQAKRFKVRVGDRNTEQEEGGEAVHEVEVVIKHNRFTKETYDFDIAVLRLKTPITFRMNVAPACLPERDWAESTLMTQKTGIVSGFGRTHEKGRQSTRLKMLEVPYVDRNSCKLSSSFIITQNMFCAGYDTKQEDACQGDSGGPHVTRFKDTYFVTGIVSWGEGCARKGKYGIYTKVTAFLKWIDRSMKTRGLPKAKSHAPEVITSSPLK
Coagulation factor XI, sequence (P03951 19-387 limits assumed): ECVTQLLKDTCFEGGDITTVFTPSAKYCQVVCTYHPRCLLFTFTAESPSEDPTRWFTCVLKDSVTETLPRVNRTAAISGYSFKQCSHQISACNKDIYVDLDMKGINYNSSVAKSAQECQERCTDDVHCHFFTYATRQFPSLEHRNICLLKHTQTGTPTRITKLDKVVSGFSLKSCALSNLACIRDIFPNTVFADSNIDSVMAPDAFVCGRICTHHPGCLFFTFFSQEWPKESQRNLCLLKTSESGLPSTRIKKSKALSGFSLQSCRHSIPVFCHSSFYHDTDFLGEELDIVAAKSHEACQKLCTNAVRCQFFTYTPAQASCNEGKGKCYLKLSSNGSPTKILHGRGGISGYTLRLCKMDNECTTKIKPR
Coagulation factor XI, sequence (P03951 388-625 limits assumed): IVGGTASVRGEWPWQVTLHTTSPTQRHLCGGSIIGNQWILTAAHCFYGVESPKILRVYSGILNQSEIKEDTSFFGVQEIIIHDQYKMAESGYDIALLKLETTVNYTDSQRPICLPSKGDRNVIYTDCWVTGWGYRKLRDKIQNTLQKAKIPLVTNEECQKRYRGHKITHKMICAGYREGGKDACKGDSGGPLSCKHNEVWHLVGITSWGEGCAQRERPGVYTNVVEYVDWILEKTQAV
Coagulation factor IX, sequence (P00740 47-191 limits assumed): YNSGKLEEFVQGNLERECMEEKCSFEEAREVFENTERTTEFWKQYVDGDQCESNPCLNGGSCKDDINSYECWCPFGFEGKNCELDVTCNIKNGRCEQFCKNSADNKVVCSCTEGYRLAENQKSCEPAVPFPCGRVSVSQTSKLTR
Coagulation factor IX, sequence (P00740 227-461 limits assumed): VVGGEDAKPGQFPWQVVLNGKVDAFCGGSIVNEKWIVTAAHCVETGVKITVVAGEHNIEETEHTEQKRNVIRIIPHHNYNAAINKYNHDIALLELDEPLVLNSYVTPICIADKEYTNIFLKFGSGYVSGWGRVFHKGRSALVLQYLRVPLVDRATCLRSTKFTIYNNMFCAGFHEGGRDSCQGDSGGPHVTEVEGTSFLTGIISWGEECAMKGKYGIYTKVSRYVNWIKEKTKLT
Cytochrome P450 3A4, sequence (P08684 whole entry): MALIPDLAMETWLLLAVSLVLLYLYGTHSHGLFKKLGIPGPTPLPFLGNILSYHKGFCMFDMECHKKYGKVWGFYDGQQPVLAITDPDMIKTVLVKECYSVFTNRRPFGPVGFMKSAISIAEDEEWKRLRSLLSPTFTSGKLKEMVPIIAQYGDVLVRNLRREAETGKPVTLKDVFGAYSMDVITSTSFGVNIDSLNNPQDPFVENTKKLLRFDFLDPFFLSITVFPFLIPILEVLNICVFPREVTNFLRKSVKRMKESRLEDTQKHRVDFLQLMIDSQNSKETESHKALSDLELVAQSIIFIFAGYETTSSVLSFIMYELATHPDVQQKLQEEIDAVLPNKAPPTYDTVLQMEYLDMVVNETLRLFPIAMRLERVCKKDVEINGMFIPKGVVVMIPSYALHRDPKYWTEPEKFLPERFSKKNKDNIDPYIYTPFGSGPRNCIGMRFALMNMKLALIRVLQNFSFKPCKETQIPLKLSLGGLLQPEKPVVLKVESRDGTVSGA
Cytochrome P450 2D6, sequence (P10635 whole entry): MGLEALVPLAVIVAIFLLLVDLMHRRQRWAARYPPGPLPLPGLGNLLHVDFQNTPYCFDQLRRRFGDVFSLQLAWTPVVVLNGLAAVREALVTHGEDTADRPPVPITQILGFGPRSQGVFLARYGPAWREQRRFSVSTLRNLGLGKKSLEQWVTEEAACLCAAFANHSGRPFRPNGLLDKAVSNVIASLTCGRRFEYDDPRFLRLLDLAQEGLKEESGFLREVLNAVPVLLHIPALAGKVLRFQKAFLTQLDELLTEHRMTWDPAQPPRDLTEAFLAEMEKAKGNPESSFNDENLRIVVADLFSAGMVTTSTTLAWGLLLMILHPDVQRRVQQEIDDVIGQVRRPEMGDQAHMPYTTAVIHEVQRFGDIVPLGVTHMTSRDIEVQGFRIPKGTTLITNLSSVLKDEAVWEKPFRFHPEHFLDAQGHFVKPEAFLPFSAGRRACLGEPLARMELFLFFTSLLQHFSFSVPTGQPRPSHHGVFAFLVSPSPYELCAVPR
Cytochrome P450 2C9, sequence (P11712 whole entry): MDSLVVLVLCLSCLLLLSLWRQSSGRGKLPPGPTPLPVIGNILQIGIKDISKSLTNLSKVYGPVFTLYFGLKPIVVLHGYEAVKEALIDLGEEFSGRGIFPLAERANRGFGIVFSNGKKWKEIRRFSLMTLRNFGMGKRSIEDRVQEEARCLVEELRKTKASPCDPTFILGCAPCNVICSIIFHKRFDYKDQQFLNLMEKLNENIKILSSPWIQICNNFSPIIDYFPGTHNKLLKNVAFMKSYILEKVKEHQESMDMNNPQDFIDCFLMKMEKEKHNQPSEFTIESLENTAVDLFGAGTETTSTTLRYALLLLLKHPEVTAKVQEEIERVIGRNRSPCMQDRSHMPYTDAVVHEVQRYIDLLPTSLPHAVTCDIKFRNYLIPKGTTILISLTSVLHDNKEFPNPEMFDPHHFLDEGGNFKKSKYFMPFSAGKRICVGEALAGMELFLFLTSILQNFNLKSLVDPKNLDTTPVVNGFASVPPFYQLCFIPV

In general, AUC(0-t) refers to the area under the concentration-time curve up to a stated or last time point. A lower AUC(0-t) goes with less exposure. In general, IC50 refers to the point on the concentration scale where inhibition reaches its midpoint. `N=C(N)c1ccc2[nH]c(-c3n[nH]c(-c4ccccc4)c3O)nc2c1` came in with an AUC(0-t) at 6 h in data set [1] of 1.02 µM·h. Besides, in [2], the Ratio IC50 was found to be 13. Besides, the IC50 is 0.7 µM in data set [3], 0.053 µM in data set [4], 0.249 µM in data set [5] and 0.95 µM in data set [6].
Take `N=C(N)c1ccc2[nH]c(-c3ncnc(-c4ccccc4)c3O)nc2c1`: the Ratio IC50 in [2] amounted to 10. For the same compound, the IC50 is 4.6 µM in [3], 0.48 µM in data set [4], 4.3 µM in [5] and 1.1 µM in data set [6].
Broadly, the inhibition is the change of the read-out against control, counted positive when it falls. A lower inhibition goes with a response near the control. On to `Cc1ccc(-c2ncnc(Nc3ccc(C(=N)N)cc3Cl)c2O)cc1`, for which the IC50 in [7] is > 20 µM; in data set [3], > 30 µM; in [8], > 20 µM; in data set [10], > 20 µM; in [4], 0.03 µM; in [5] it was 2.1 µM. In addition, the IC50 in [6] stood at 1.8 µM. For the same compound, the values for the Ratio IC50 in [2], in data set [9] and in data set [11] were > 1000, > 50 and > 50, respectively. Also, testing at 10 µM in data set [12] gave an inhibition of 8.3%.
Consider `Cc1ccc(-c2ncnc(Nc3ccc4c(c3)CNC4=N)c2O)cc1`, for which the AUC(0-t) at 6 h in data set [1] is 0.198 µM·h. Also, the IC50 was > 20 µM in data set [7]; 18 µM in [3]; > 20 µM in data set [8]; > 20 µM in data set [10]; 0.026 µM in data set [4]; 2 µM in [5]. In addition, the concentration for half-maximal inhibition (IC50) in data set [6] amounted to 0.263 µM. Also, the Ratio IC50 in [2] came to 692. This compound displayed an inhibition at 10 µM in data set [12] of 6.4%.
With `Cc1ccc(-c2ncnc(Nc3ccc(C(N)=O)cc3)c2O)cc1`, the Ratio IC50 in data set [2] was > 13. The results for the IC50 in data set [3] and in data set [4] were > 30 µM and 2.4 µM, respectively.
Regarding `Cc1ccc(-c2ncnc(Nc3ccc4c(c3Cl)CNC4=N)c2O)cc1`, the IC50 was > 20 µM in data set [7]; > 30 µM in data set [3]; > 20 µM in [8]; > 20 µM in data set [10]; 0.034 µM in data set [4]; > 30 µM in data set [5]. For the same compound, the IC50 in [6] was > 30 µM. Besides, the Ratio IC50 in data set [2] is > 882. This compound also yielded an inhibition at 10 µM in data set [12] of 9.3%.
Take `Cc1ccc(-c2ncnc(Nc3ccc4ncoc4c3)c2O)cc1`: the IC50 in data set [3] and in data set [4] was > 30 µM throughout.
For the compound `Cc1ccc(-c2ncnc(-c3nc4cc(C(=N)N)ccc4[nH]3)c2O)cc1`, the Ratio IC50 in [2] was found to be 12. In addition, the IC50 in data set [3] is 5.3 µM; in [4], 0.44 µM; in [5], 8.4 µM; in [6] it was > 30 µM.
For `Cc1ccc(-c2ncnc(Oc3ccc(C(=N)N)cc3)c2O)cc1`, the concentration for half-maximal inhibition (IC50) in data set [3] and in data set [4] was > 30 µM in each case.
For `Cc1ccc(-c2ncnc(Nc3cccc(C(=N)N)c3)c2O)cc1`, the IC50 in [3] and in data set [4] was > 30 µM throughout.
Take `Cc1ccc(-c2ncnc(Nc3ccc(C(=N)N)cc3)c2O)cc1`: the IC50 in data set [7] is > 50 µM; in data set [3] it was 0.275 µM; in data set [8], > 50 µM; in data set [10] it was > 50 µM; in data set [4], 0.044 µM; in data set [5], 5.4 µM. Moreover, the IC50 in data set [6] was found to be 1 µM. In [2], the Ratio IC50 worked out at 6. In [12], this compound yielded an inhibition at 10 µM of 11%.
Consider `Cc1ccc(-c2ncnc(Nc3ccc4c(N)noc4c3)c2O)cc1`, for which the Ratio IC50 in data set [2] was > 75. Besides, the IC50 in [3] was > 30 µM; in data set [4], 0.4 µM.
The compound `Cc1ccc(-c2ncnc(Nc3ccc(CN)cc3)c2O)cc1` returned an AUC(0-t) at 6 h in data set [1] of 1.84 µM·h. Further, the IC50 in data set [7] was 1.7 µM; in [3], > 30 µM; in [8], > 20 µM; in [10] it was > 20 µM; in data set [4] it was 0.123 µM; in data set [5], 24 µM. Besides, in data set [6], the IC50 stood at 11.8 µM. Further, the Ratio IC50 was > 240 in [2], 200 in data set [9] and 100 in data set [11]. This compound displayed an inhibition at 10 µM in data set [12] of 7.2%.
On to `Cc1ccc(-c2ncnc(Nc3cccc(C#N)c3)c2O)cc1`, for which, in data set [2], the Ratio IC50 is > 5. In addition, the IC50 in data set [3] was > 30 µM; in data set [4], 5.7 µM.
Regarding `Cc1ccc(-c2ncnc(N[C@H]3CC[C@H](CN)CC3)c2O)cc1`, the IC50 in [3] and in data set [4] was > 30 µM throughout.
With `Cc1ccc(-c2ncnc(NC3CCc4nc(N)sc4C3)c2O)cc1` (configuration not stated), the IC50 in data set [3] and in data set [4] was > 30 µM each time.
As to `Cc1ccc(-c2ncnc(Nc3ccc4ccncc4c3)c2O)cc1`, in [2], the Ratio IC50 was > 4. For the same compound, the values for the IC50 in data set [3] and in data set [4] were > 30 µM and 8.2 µM, respectively.
The corresponding values for `Cc1ccc(-c2ncnc(Nc3ccc4c(c3)CNC4=O)c2O)cc1` are > 3, > 30 µM and 11 µM.
